Experiments:
paddy grains [1] = assay: Total protein content in paddy grains; format: in vivo; conditions: treatment applied with farmer practice (NPK)
paddy grains [2] = assay: Total phenol estimation in paddy grains; format: in vivo; conditions: treatment applied with farmer practice (NPK)

SMILES	% of Protein (total protein content in paddy grains) (paddy grains [1])	Total phenol Conc ppm in paddy grains (paddy grains [2])
O=C[O-].[K+] [Potassium formate]	0.011%	19.88 ppm
CC1=CC(=O)CC(C)(C)[C@@]1(O)/C=C/C(C)=C\C(=O)O [Abscisic acid]	0.008%	18.78 ppm
O=CO.O=C[O-].[K+] [Potassium diformate]	0.012%	19.97 ppm
C=C1C[C@]23C[C@@]1(O)CC[C@H]2[C@@]12C=C[C@H](O)[C@@](C)(C(=O)O1)[C@H]2[C@@H]3C(=O)O [Gibberellic acid]	0.008%	16.7 ppm
COc1ccc2[nH]cc(CCNC(C)=O)c2c1 [Melatonin]		17.9 ppm

Source: patent publication US20240164378A1, “SYNERGISTIC PLANT GROWTH STIMULANT COMPOSITIONS OF POTASSIUM MONO/DI-FORMATE WITH CARBOXYLIC ACIDS” (FERTIS INDIA PVT. LTD., priority 2021, published 2024)
